Assay results taken from patent US20030149306A1, “Process for the preparation of polymorph of 4-(aryl)-1,2,3,4-tetrahydro-1-naphthale-namine derivative” (priority 2000, published 2003).
“Also recorded” adds a separate entry of the source. Structures can show the parent of a compound that is named as a salt.

Legend:
[1] = compared among Forms I to V; cited from earlier work
[2] = from a pharmaceutical formulation; cited from earlier work
[3] = as compared to Form I; cited from earlier work
[4] = solid-state stability of Form V (Infrared spectrum KBr and X-ray diffractogram) under storage, grinding and heating; format: physicochemical
Protocol: For example, it was stable for 3 months at 40° C. and 75% relative humidity or when subjected to grinding in a pestle and mortar or when heated upto 140° C. for 3 hours.
No change in Infrared spectrum (KBr) and X-ray diffractogram was observed after 3 months at 40° C. and 75% relative humidity or when subjected to grinding in a pestle and mortar or when heated upto 140° C. for 3 hours.

Structure (SMILES): CN[C@H]1CC[C@@H](c2ccc(Cl)c(Cl)c2)c2ccccc21 [Form I, hydrochloride salt of (1S,4S) N-methyl-4-(3,4-dichlorophenyl)-1,2,3,4-tetrahydro-1-naphthalenamine]
- thermodynamic stability among crystalline forms [1]: most thermodynamically stable form; also recorded: most stable crystalline form
- dissolution rate with respect to the desired bioavailability [2]: dissolves too slowly

Structure (SMILES): CN[C@H]1CC[C@@H](c2ccc(Cl)c(Cl)c2)c2ccccc21 [Example T1, (1S, 4S) N-methyl-4-(3,4-dichlorophenyl)-1,2,3,4-tetrahydro-1-naphthalenamine]
- bioavailability [3]: much-improved bioavailability

Structure (SMILES): CN[C@H]1CC[C@@H](c2ccc(Cl)c(Cl)c2)c2ccccc21 [Form V, hydrochloride salt of (1S,4S) N-methyl-4-(3,4-dichlorophenyl)-1,2,3,4-tetrahydro-1-naphthalenamine]
- stability (change in Infrared spectrum (KBr) and X-ray diffractogram) ([4]; 3 months at 40° C. and 75% relative humidity): stable
- stability (change in Infrared spectrum (KBr) and X-ray diffractogram) ([4]; 3 months at 40° C. and 75% relative humidity, listed as Example 1): No change
- stability (change in Infrared spectrum (KBr) and X-ray diffractogram) ([4]; heated upto 140° C. for 3 hours): stable
- stability (change in Infrared spectrum (KBr) and X-ray diffractogram) ([4]; heated upto 140° C. for 3 hours, listed as Example 1): No change
- stability (change in Infrared spectrum (KBr) and X-ray diffractogram) ([4]; subjected to grinding in a pestle and mortar): stable
- stability (change in Infrared spectrum (KBr) and X-ray diffractogram) ([4]; subjected to grinding in a pestle and mortar, listed as Example 1): No change
